Measurements as given in paper PMC9911596 (Nature Communications, 2023).

Molecular target: T1, Vtc1/Vtc3/Vtc4 complex (VTC complex) (Saccharomyces cerevisiae, UniProt P47075+Q02725)
T1 construct: full-length subunits co-expressed in Expi293F; Vtc1 C-terminal HA, Vtc3 N-terminal 3xFlag, Vtc4 C-terminal 2xStrep; detergent-purified; 3:1:1 pentamer; with Vacuolar transporter chaperone complex subunit 1
T1 sequence (P47075 1-721): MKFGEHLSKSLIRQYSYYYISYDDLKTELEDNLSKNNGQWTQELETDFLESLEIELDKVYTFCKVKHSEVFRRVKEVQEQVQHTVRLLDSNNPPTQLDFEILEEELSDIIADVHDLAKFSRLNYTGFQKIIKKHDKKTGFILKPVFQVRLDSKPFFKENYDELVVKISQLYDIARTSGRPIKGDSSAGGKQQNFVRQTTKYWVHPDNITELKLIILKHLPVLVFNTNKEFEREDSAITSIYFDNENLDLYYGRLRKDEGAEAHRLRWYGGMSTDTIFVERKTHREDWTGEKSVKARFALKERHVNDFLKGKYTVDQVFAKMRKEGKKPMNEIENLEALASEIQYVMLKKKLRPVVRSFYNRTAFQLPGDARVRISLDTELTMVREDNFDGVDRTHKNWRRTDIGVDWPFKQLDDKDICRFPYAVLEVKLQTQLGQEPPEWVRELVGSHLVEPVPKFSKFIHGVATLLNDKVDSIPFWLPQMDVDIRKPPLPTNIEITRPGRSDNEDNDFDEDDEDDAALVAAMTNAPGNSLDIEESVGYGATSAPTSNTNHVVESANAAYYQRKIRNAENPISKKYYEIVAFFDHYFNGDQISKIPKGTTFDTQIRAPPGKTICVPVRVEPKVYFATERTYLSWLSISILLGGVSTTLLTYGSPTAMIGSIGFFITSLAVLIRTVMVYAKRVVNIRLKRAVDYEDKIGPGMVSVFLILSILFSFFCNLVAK
T1 sequence (Q02725 1-835): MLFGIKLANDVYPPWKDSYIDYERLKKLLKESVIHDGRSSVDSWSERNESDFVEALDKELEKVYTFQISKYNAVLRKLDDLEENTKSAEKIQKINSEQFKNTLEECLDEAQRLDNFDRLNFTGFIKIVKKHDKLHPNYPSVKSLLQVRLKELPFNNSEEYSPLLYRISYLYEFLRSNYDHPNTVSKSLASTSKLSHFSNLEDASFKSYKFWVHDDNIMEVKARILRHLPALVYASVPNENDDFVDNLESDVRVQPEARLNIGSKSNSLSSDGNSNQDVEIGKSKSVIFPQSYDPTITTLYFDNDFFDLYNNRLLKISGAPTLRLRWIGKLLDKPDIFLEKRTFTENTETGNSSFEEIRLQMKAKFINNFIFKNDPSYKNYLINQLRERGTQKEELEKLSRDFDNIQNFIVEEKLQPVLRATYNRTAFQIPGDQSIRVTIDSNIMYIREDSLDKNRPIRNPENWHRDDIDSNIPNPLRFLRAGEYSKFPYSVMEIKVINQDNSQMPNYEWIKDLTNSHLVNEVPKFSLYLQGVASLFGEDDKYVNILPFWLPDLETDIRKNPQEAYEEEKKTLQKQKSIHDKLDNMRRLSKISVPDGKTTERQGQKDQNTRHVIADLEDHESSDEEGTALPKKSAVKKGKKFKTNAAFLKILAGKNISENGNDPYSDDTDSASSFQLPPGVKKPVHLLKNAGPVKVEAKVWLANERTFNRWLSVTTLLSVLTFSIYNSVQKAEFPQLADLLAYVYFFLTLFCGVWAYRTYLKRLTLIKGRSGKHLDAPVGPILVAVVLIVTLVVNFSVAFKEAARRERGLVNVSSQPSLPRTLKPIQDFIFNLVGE
T1 sequence (P40046 22-129 partner): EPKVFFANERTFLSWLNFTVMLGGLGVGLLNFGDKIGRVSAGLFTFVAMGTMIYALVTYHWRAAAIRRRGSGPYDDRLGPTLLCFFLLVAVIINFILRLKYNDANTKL
Assay: polyP synthesis, TBE-PAGE; smFRET
Type: biochemical
Conditions: 1 mM InsP6; activator; deletion of Vtc1 N-terminus

O=P(O)(O)O[C@H]1[C@H](OP(=O)(O)O)[C@@H](OP(=O)(O)O)[C@H](OP(=O)(O)O)[C@@H](OP(=O)(O)O)[C@H]1OP(=O)(O)O [InsP6]
polyP synthesis, TBE-PAGE; smFRET: mutant VTC complex that can no longer be activated by the InsP6 stimulus
